Assay results as given in PubChem BioAssay AID1963974 (Molecular Pharmacology Branch, DTP, NCI, 2024).

System: 648629-189-R-J1-PDC spheroids with HUVEC/MSC, viability
Assay: Anticancer human tumor 648629-189-R-J1-PDC patient-derived bladder carcinoma cell line growth inhibition [PI3K]
Conditions: for IC50: curve of first compound; for viability, T/C: stronger effect = lower value
How it was run: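 Complex 3D spheroids (cancer cells + endothelial HUVEC + mesenchymal stem cells); drug pairs of targeted agent x inavolisib/alpelisib/duvelisib/copanlisib; half-log series from ~Cmax, max 10 microM if Cmax unknown; endpoint viability.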

[1] = second compound 0.00316 µM, first compound 0.0316 µM
[2] = second compound 0.00316 µM, first compound 0.1 µM
[3] = second compound 0.01 µM, first compound 0.0316 µM
[4] = second compound 0.01 µM, first compound 0.1 µM
[5] = second compound 0.0316 µM, first compound 0.00316 µM
[6] = second compound 0.0316 µM, first compound 0.01 µM
[7] = second compound 0.0316 µM, first compound 0.0316 µM
[8] = second compound 0.0316 µM, first compound 0.1 µM
[9] = second compound 0.1 µM, first compound 0.00316 µM
[10] = second compound 0.1 µM, first compound 0.01 µM
[11] = second compound 0.1 µM, first compound 0.0316 µM
[12] = second compound 0.1 µM, first compound 0.1 µM
[13] = second compound 0.316 µM, first compound 0.00316 µM
[14] = second compound 0.316 µM, first compound 0.01 µM
[15] = second compound 0.316 µM, first compound 0.0316 µM
[16] = second compound 0.316 µM, first compound 0.1 µM
[17] = second compound 1 µM, first compound 0.00316 µM
[18] = second compound 1 µM, first compound 0.01 µM
[19] = second compound 1 µM, first compound 0.0316 µM
[20] = second compound 1 µM, first compound 0.1 µM
[21] = second compound 0.0316 µM, first compound 0.316 µM
[22] = second compound 0.0316 µM, first compound 1 µM
[23] = second compound 0.1 µM, first compound 0.316 µM
[24] = second compound 0.1 µM, first compound 1 µM
[25] = second compound 0.316 µM, first compound 0.316 µM
[26] = second compound 0.316 µM, first compound 1 µM
[27] = second compound 1 µM, first compound 0.316 µM
[28] = second compound 1 µM, first compound 1 µM
[29] = second compound 3.16 µM, first compound 0.0316 µM
[30] = second compound 3.16 µM, first compound 0.1 µM
[31] = second compound 3.16 µM, first compound 0.316 µM
[32] = second compound 3.16 µM, first compound 1 µM
[33] = second compound 10 µM, first compound 0.0316 µM
[34] = second compound 10 µM, first compound 0.1 µM
[35] = second compound 10 µM, first compound 0.316 µM
[36] = second compound 10 µM, first compound 1 µM
[37] = second compound 0.0316 µM, first compound 3.16 µM
[38] = second compound 0.0316 µM, first compound 10 µM
[39] = second compound 0.1 µM, first compound 3.16 µM
[40] = second compound 0.1 µM, first compound 10 µM
[41] = second compound 0.316 µM, first compound 3.16 µM
[42] = second compound 0.316 µM, first compound 10 µM
[43] = second compound 1 µM, first compound 3.16 µM
[44] = second compound 1 µM, first compound 10 µM
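Note: spheroids exposed to agents for seven days before reading.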
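Throughout, for viability, T/C: percent of vehicle control luminescence where 100% = DMSO treated spheroids.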

## CC(=O)c1c(C)c2cnc(Nc3ccc(N4CCNCC4)cn3)nc2n(C2CCCC2)c1=O + COc1c(OCCCN2CCOCC2)ccc2c3n(c(=NC(=O)c4cnc(N)nc4)nc12)CCN3
Second compound 0.00316 µM
  IC50: > 0.1 µM
Second compound 0.01 µM
  IC50: > 0.1 µM
Second compound 0.0316 µM
  IC50: > 0.1 µM
Second compound 0.1 µM
  IC50: > 0.1 µM
Second compound 0.316 µM
  IC50: < 0.000316 µM
Second compound 1 µM
  IC50: < 0.000316 µM
Second compound 0.00316 µM, first compound 0.000316 µM
  viability, T/C: 106%
Second compound 0.00316 µM, first compound 0.001 µM
  viability, T/C: 98.1%
Second compound 0.00316 µM, first compound 0.00316 µM
  viability, T/C: 99.6%
Second compound 0.00316 µM, first compound 0.01 µM
  viability, T/C: 101%
[1]
  viability, T/C: 117%
[2]
  viability, T/C: 98.9%
Second compound 0.01 µM, first compound 0.000316 µM
  viability, T/C: 98.2%
Second compound 0.01 µM, first compound 0.001 µM
  viability, T/C: 110%
Second compound 0.01 µM, first compound 0.00316 µM
  viability, T/C: 99.8%
Second compound 0.01 µM, first compound 0.01 µM
  viability, T/C: 101%
[3]
  viability, T/C: 103%
[4]
  viability, T/C: 107%
Second compound 0.0316 µM, first compound 0.000316 µM
  viability, T/C: 89.7%
Second compound 0.0316 µM, first compound 0.001 µM
  viability, T/C: 100%
[5]
  viability, T/C: 106%
[6]
  viability, T/C: 99.1%
[7]
  viability, T/C: 89.4%
[8]
  viability, T/C: 94.2%
Second compound 0.1 µM, first compound 0.000316 µM
  viability, T/C: 68.6%
Second compound 0.1 µM, first compound 0.001 µM
  viability, T/C: 66.8%
[9]
  viability, T/C: 64.8%
[10]
  viability, T/C: 61%
[11]
  viability, T/C: 70.1%
[12]
  viability, T/C: 68.4%
Second compound 0.316 µM, first compound 0.000316 µM
  viability, T/C: 23.5%
Second compound 0.316 µM, first compound 0.001 µM
  viability, T/C: 23.2%
[13]
  viability, T/C: 22.4%
[14]
  viability, T/C: 26.3%
[15]
  viability, T/C: 27.6%
[16]
  viability, T/C: 19.6%
Second compound 1 µM, first compound 0.000316 µM
  viability, T/C: 3.72%
Second compound 1 µM, first compound 0.001 µM
  viability, T/C: 3.62%
[17]
  viability, T/C: 3.08%
[18]
  viability, T/C: 4%
[19]
  viability, T/C: 4.37%
[20]
  viability, T/C: 2.62%

## CCN1CCN(Cc2ccc(Nc3ncc(F)c(-c4cc(F)c5nc(C)n(C(C)C)c5c4)n3)nc2)CC1 + Cc1nc(NC(=O)N2CCCC2C(N)=O)sc1-c1ccnc(C(C)(C)C(F)(F)F)c1
Second compound 0.0316 µM
  IC50: > 1 µM
Second compound 0.1 µM
  IC50: > 1 µM
Second compound 0.316 µM
  IC50: > 1 µM
Second compound 1 µM
  IC50: > 1 µM
Second compound 3.16 µM
  IC50: > 1 µM
Second compound 10 µM
  IC50: < 0.00316 µM
[5]
  viability, T/C: 96.4%
[6]
  viability, T/C: 107%
[7]
  viability, T/C: 104%
[8]
  viability, T/C: 99.2%
[21]
  viability, T/C: 119%
[22]
  viability, T/C: 120%
[9]
  viability, T/C: 101%
[10]
  viability, T/C: 103%
[11]
  viability, T/C: 101%
[12]
  viability, T/C: 114%
[23]
  viability, T/C: 100%
[24]
  viability, T/C: 109%
[13]
  viability, T/C: 88.8%
[14]
  viability, T/C: 93.7%
[15]
  viability, T/C: 90%
[16]
  viability, T/C: 91.6%
[25]
  viability, T/C: 96.9%
[26]
  viability, T/C: 101%
[17]
  viability, T/C: 78.2%
[18]
  viability, T/C: 75.5%
[19]
  viability, T/C: 73%
[20]
  viability, T/C: 80.4%
[27]
  viability, T/C: 83.6%
[28]
  viability, T/C: 83.1%
Second compound 3.16 µM, first compound 0.00316 µM
  viability, T/C: 49.9%
Second compound 3.16 µM, first compound 0.01 µM
  viability, T/C: 57.7%
[29]
  viability, T/C: 53.8%
[30]
  viability, T/C: 59.3%
[31]
  viability, T/C: 64.7%
[32]
  viability, T/C: 69.8%
Second compound 10 µM, first compound 0.00316 µM
  viability, T/C: 41.9%
Second compound 10 µM, first compound 0.01 µM
  viability, T/C: 38.8%
[33]
  viability, T/C: 40.7%
[34]
  viability, T/C: 41.5%
[35]
  viability, T/C: 43.5%
[36]
  viability, T/C: 41.6%

## CCCS(=O)(=O)Nc1ccc(F)c(C(=O)c2c[nH]c3ncc(-c4ccc(Cl)cc4)cc23)c1F + CC(Nc1ncnc2nc[nH]c12)c1cc2cccc(Cl)c2c(=O)n1-c1ccccc1
Second compound 0.0316 µM
  IC50: 5.23 µM
Second compound 0.1 µM
  IC50: 5.59 µM
Second compound 0.316 µM
  IC50: 5.27 µM
Second compound 1 µM
  IC50: 5.26 µM
Second compound 3.16 µM
  IC50: 4.28 µM
Second compound 10 µM
  IC50: 3.88 µM
[7]
  viability, T/C: 99.8%
[8]
  viability, T/C: 95.1%
[21]
  viability, T/C: 120%
[22]
  viability, T/C: 98.3%
[37]
  viability, T/C: 88.2%
[38]
  viability, T/C: 0.98%
[11]
  viability, T/C: 103%
[12]
  viability, T/C: 96.7%
[23]
  viability, T/C: 91.8%
[24]
  viability, T/C: 98.9%
[39]
  viability, T/C: 100%
[40]
  viability, T/C: 0.84%
[15]
  viability, T/C: 109%
[16]
  viability, T/C: 108%
[25]
  viability, T/C: 99.2%
[26]
  viability, T/C: 109%
[41]
  viability, T/C: 89.4%
[42]
  viability, T/C: 0.43%
[19]
  viability, T/C: 101%
[20]
  viability, T/C: 88.7%
[27]
  viability, T/C: 96.2%
[28]
  viability, T/C: 99.2%
[43]
  viability, T/C: 89.1%
[44]
  viability, T/C: 0.46%
[29]
  viability, T/C: 91.1%
[30]
  viability, T/C: 103%
[31]
  viability, T/C: 92.2%
[32]
  viability, T/C: 89.5%
Second compound 3.16 µM, first compound 3.16 µM
  viability, T/C: 67.6%
Second compound 3.16 µM, first compound 10 µM
  viability, T/C: 0.83%
[33]
  viability, T/C: 86.9%
[34]
  viability, T/C: 77.6%
[35]
  viability, T/C: 81.9%
[36]
  viability, T/C: 80.2%
Second compound 10 µM, first compound 3.16 µM
  viability, T/C: 60.6%
Second compound 10 µM, first compound 10 µM
  viability, T/C: 1.35%

## Cn1nccc1Nc1nccc(-c2ccn(C(CO)c3ccc(Cl)c(F)c3)c(=O)c2)n1 (stereo not drawn) + COc1c(OCCCN2CCOCC2)ccc2c3n(c(=NC(=O)c4cnc(N)nc4)nc12)CCN3
Second compound 0.00316 µM
  IC50: > 10 µM
Second compound 0.01 µM
  IC50: > 10 µM
Second compound 0.0316 µM
  IC50: > 10 µM
Second compound 0.1 µM
  IC50: > 10 µM
Second compound 0.316 µM
  IC50: < 0.0316 µM
Second compound 1 µM
  IC50: < 0.0316 µM
[1]
  viability, T/C: 103%
[2]
  viability, T/C: 92.3%
Second compound 0.00316 µM, first compound 0.316 µM
  viability, T/C: 106%
Second compound 0.00316 µM, first compound 1 µM
  viability, T/C: 103%
Second compound 0.00316 µM, first compound 3.16 µM
  viability, T/C: 98%
Second compound 0.00316 µM, first compound 10 µM
  viability, T/C: 79.2%
[3]
  viability, T/C: 113%
[4]
  viability, T/C: 96.8%
Second compound 0.01 µM, first compound 0.316 µM
  viability, T/C: 104%
Second compound 0.01 µM, first compound 1 µM
  viability, T/C: 111%
Second compound 0.01 µM, first compound 3.16 µM
  viability, T/C: 107%
Second compound 0.01 µM, first compound 10 µM
  viability, T/C: 79.4%
[7]
  viability, T/C: 90.9%
[8]
  viability, T/C: 91.4%
[21]
  viability, T/C: 86.3%
[22]
  viability, T/C: 110%
[37]
  viability, T/C: 102%
[38]
  viability, T/C: 79.2%
[11]
  viability, T/C: 70.1%
[12]
  viability, T/C: 65.7%
[23]
  viability, T/C: 64.2%
[24]
  viability, T/C: 83%
[39]
  viability, T/C: 83.3%
[40]
  viability, T/C: 68.8%
[15]
  viability, T/C: 20.6%
[16]
  viability, T/C: 21.1%
[25]
  viability, T/C: 26.9%
[26]
  viability, T/C: 28.3%
[41]
  viability, T/C: 48.6%
[42]
  viability, T/C: 44.5%
[19]
  viability, T/C: 3.68%
[20]
  viability, T/C: 3.03%
[27]
  viability, T/C: 3.39%
[28]
  viability, T/C: 3.34%
[43]
  viability, T/C: 8.78%
[44]
  viability, T/C: 9.04%
